Reference: patent US9113629B2, “4-amino-6-(4-substituted-phenyl)-picolinates and 6-amino-2-(4-substituted-phenyl)-pyrimidine-4-carboxylates and their use as herbicides” (DOW AGROSCIENCES LLC, priority 2013, dated 2015)

How the values were obtained:
[1] = Post-emergent Test III, herbicidal activity in wheat and barley; type: in vivo, Lolium multiflorum, Lolium rigidum; details: Lolium multiflorum, post-emergence, 504 h, read-out: Visual Growth Reduction (%) 21 Days After Application LOLSS; for pest or weed control at 35 g/ha: 35 g ai/ha; for pest or weed control at 70 g/ha: 70 g ai/ha; for pest or weed control at 140 g/ha: 140 g ai/ha
How it was run: (§1)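 GR20, GR50, GR80 and GR90 come from probit analysis of visual injury scores (0 = none, 100 = complete kill) taken 21 d after treatment. Foliar application was by track sprayer delivering 187 L/ha at five rates, from high down to 1/16×, onto greenhouse plants at the 2–3 leaf stage, with solvent-blank controls.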

[2] = system: HORSS: barley, including spring and winter (Hordeum vulgare); test: as above; type: in vivo; details: for pest or weed control at 35 g/ha / pest or weed control at 70 g/ha / pest or weed control at 140 g/ha: Hordeum vulgare, post-emergence, 504 h, read-out: Visual Growth Reduction (%) 21 Days After Application HORSS; for pest or weed control at 35 g/ha: 35 g ai/ha; for pest or weed control at 70 g/ha: 70 g ai/ha; for pest or weed control at 140 g/ha: 140 g ai/ha; for GR20 HORSS: probit analysis, dose for growth reduction of 20 percent, 21 days after application, crop
How it was run: as §1

[3] = system: KCHSC: kochia (Kochia scoparia); test: as above; type: in vivo; details: for pest or weed control at 35 g/ha / pest or weed control at 70 g/ha / pest or weed control at 140 g/ha: Bassia scoparia, post-emergence, 504 h, read-out: Visual Growth Reduction (%) 21 Days After Application KCHSC; for pest or weed control at 35 g/ha: 35 g ai/ha; for pest or weed control at 70 g/ha: 70 g ai/ha; for pest or weed control at 140 g/ha: 140 g ai/ha; for GR50 KCHSC / GR80 KCHSC: probit analysis, 21 days after application; for GR50 KCHSC: dose for growth reduction of 50 percent; for GR80 KCHSC: dose for growth reduction of 80 percent
How it was run: as §1

[4] = system: LAMSS; test: as above; type: in vivo; details: for pest or weed control at 35 g/ha / pest or weed control at 70 g/ha / pest or weed control at 140 g/ha: post-emergence, 504 h, read-out: Visual Growth Reduction (%) 21 Days After Application LAMSS; for pest or weed control at 35 g/ha: 35 g ai/ha; for pest or weed control at 70 g/ha: 70 g ai/ha; for pest or weed control at 140 g/ha: 140 g ai/ha; for GR50 LAMSS / GR80 LAMSS: probit analysis, 21 days after application; for GR50 LAMSS: dose for growth reduction of 50 percent; for GR80 LAMSS: dose for growth reduction of 80 percent
How it was run: as §1

[5] = system: LOLSS: ryegrass including, Italian ryegrass (Lolium multiflorum), rigid ryegrass (Lolium rigidum), annual ryegrass (Lolium multiflorum subsp. Gaudini); test: as above; type: in vivo; details: probit analysis, 21 days after application; for GR50 LOLSS: dose for growth reduction of 50 percent; for GR80 LOLSS: dose for growth reduction of 80 percent
How it was run: as §1

[6] = system: MATSS: scented mayweed (Matricaria chamomilla), pineappleweed (Matricaria matricarioides); test: as above; type: in vivo; details: for pest or weed control at 35 g/ha / pest or weed control at 70 g/ha / pest or weed control at 140 g/ha: Matricaria chamomilla, post-emergence, 504 h, read-out: Visual Growth Reduction (%) 21 Days After Application MATSS; for pest or weed control at 35 g/ha: 35 g ai/ha; for pest or weed control at 70 g/ha: 70 g ai/ha; for pest or weed control at 140 g/ha: 140 g ai/ha; for GR50 MATSS / GR80 MATSS: probit analysis, 21 days after application; for GR50 MATSS: dose for growth reduction of 50 percent; for GR80 MATSS: dose for growth reduction of 80 percent
How it was run: as §1

[7] = system: SETVI: green foxtail (Setaria viridis); test: as above; type: in vivo; details: for pest or weed control at 35 g/ha / pest or weed control at 70 g/ha / pest or weed control at 140 g/ha: Setaria viridis, post-emergence, 504 h, read-out: Visual Growth Reduction (%) 21 Days After Application SETVI; for pest or weed control at 35 g/ha: 35 g ai/ha; for pest or weed control at 70 g/ha: 70 g ai/ha; for pest or weed control at 140 g/ha: 140 g ai/ha; for GR50 SETVI / GR80 SETVI: probit analysis, 21 days after application; for GR50 SETVI: dose for growth reduction of 50 percent; for GR80 SETVI: dose for growth reduction of 80 percent
How it was run: as §1

[8] = system: TRZSS: wheat, including spring and winter (Triticum aestivum); test: as above; type: in vivo; details: for pest or weed control at 35 g/ha / pest or weed control at 70 g/ha / pest or weed control at 140 g/ha: Triticum aestivum, post-emergence, 504 h, read-out: Visual Growth Reduction (%) 21 Days After Application TRZSS; for pest or weed control at 35 g/ha: 35 g ai/ha; for pest or weed control at 70 g/ha: 70 g ai/ha; for pest or weed control at 140 g/ha: 140 g ai/ha; for GR20 TRZSS: probit analysis, dose for growth reduction of 20 percent, 21 days after application, crop
How it was run: as §1

[9] = system: VERPE: bird's-eye speedwell (veronica persica); test: as above; type: in vivo; details: for pest or weed control at 35 g/ha / pest or weed control at 70 g/ha / pest or weed control at 140 g/ha: Veronica persica, post-emergence, 504 h, read-out: Visual Growth Reduction (%) 21 Days After Application VERPE; for pest or weed control at 35 g/ha: 35 g ai/ha; for pest or weed control at 70 g/ha: 70 g ai/ha; for pest or weed control at 140 g/ha: 140 g ai/ha; for GR50 VERPE / GR80 VERPE: probit analysis, 21 days after application; for GR50 VERPE: dose for growth reduction of 50 percent; for GR80 VERPE: dose for growth reduction of 80 percent
How it was run: as §1

In the case of Nc1c(F)c(-c2ccc(Cl)c(F)c2)nc(C(=O)O)c1Cl [Compound 217], the pest or weed control at 35 g/ha [1] is reported as 45 to 59%, the pest or weed control at 70 g/ha [1] is reported as 60 to 74% and the pest or weed control at 140 g/ha [1] is reported as 60 to 74%. It also gave a pest or weed control at 35 g/ha [2] of 75 to 84%, a pest or weed control at 70 g/ha [2] of 75 to 84% and a pest or weed control at 140 g/ha [2] of 75 to 84%. The “GR20 HORSS” value [2] was 7 g ai/ha, the pest or weed control at 35 g/ha [3] was 85 to 94% and the pest or weed control at 70 g/ha [3] was 95 to 100%. For the same compound, the pest or weed control at 140 g/ha [3] was 95 to 100%, the “GR50 KCHSC” value [3] was 2 g ai/ha and the “GR80 KCHSC” value [3] was 6 g ai/ha. It also gave a pest or weed control at 35 g/ha [4] of 95 to 100%, a pest or weed control at 70 g/ha [4] of 95 to 100% and a pest or weed control at 140 g/ha [4] of 95 to 100%. For the same compound, the “GR50 LAMSS” value [4] was 1 g ai/ha, the “GR80 LAMSS” value [4] was 2 g ai/ha and the “GR50 LOLSS” value [5] was 32 g ai/ha. The “GR80 LOLSS” value [5] was over 140 g ai/ha, the pest or weed control at 35 g/ha [6] was 85 to 94% and the pest or weed control at 70 g/ha [6] was 85 to 94%. For the same compound, the pest or weed control at 140 g/ha [6] was 85 to 94%, the “GR50 MATSS” value [6] was 34 g ai/ha and the “GR80 MATSS” value [6] was over 140 g ai/ha. The pest or weed control at 35 g/ha [7] was 75 to 84%, the pest or weed control at 70 g/ha [7] was 75 to 84% and the pest or weed control at 140 g/ha [7] was 75 to 84%. The “GR50 SETVI” value [7] was 46 g ai/ha, the “GR80 SETVI” value [7] was over 140 g ai/ha and the pest or weed control at 35 g/ha [8] was 75 to 84%. For the same compound, the pest or weed control at 70 g/ha [8] was 75 to 84%, the pest or weed control at 140 g/ha [8] was 85 to 94% and the “GR20 TRZSS” value [8] was 2 g ai/ha. The pest or weed control at 35 g/ha [9] was 60 to 74%, the pest or weed control at 70 g/ha [9] was 60 to 74% and the pest or weed control at 140 g/ha [9] was 60 to 74%. The “GR50 VERPE” value [9] was 19 g ai/ha and the “GR80 VERPE” value [9] was 73 g ai/ha.
Nc1cc(-c2ccc(Br)c(F)c2F)nc(C(=O)O)c1Cl [Compound 91] gave a pest or weed control at 35 g/ha [1] of 0 to 29%, a pest or weed control at 70 g/ha [1] of 0 to 29% and a pest or weed control at 140 g/ha [1] of 0 to 29%. It also gave a pest or weed control at 35 g/ha [2] of 75 to 84%, a pest or weed control at 70 g/ha [2] of 75 to 84% and a pest or weed control at 140 g/ha [2] of 85 to 94%. The “GR20 HORSS” value [2] was 1 g ai/ha, the pest or weed control at 35 g/ha [3] was 75 to 84% and the pest or weed control at 70 g/ha [3] was 85 to 94%. The pest or weed control at 140 g/ha [3] was 85 to 94%, the “GR50 KCHSC” value [3] was 2 g ai/ha and the “GR80 KCHSC” value [3] was 47 g ai/ha. It also gave a pest or weed control at 35 g/ha [4] of 95 to 100%, a pest or weed control at 70 g/ha [4] of 95 to 100% and a pest or weed control at 140 g/ha [4] of 95 to 100%. The “GR50 LAMSS” value [4] was 1 g ai/ha, the “GR80 LAMSS” value [4] was 3 g ai/ha and the “GR50 LOLSS” value [5] was over 140 g ai/ha. The “GR80 LOLSS” value [5] was over 140 g ai/ha, the pest or weed control at 35 g/ha [6] was 60 to 74% and the pest or weed control at 70 g/ha [6] was 75 to 84%. The pest or weed control at 140 g/ha [6] was 85 to 94%, the “GR50 MATSS” value [6] was 11 g ai/ha and the “GR80 MATSS” value [6] was 75 g ai/ha. For the same compound, the pest or weed control at 35 g/ha [7] was 60 to 74%, the pest or weed control at 70 g/ha [7] was 75 to 84% and the pest or weed control at 140 g/ha [7] was 75 to 84%. For the same compound, the “GR50 SETVI” value [7] was 6 g ai/ha, the “GR80 SETVI” value [7] was 105 g ai/ha and the pest or weed control at 35 g/ha [8] was 75 to 84%. The pest or weed control at 70 g/ha [8] was 85 to 94%, the pest or weed control at 140 g/ha [8] was 85 to 94% and the “GR20 TRZSS” value [8] was 1 g ai/ha. The pest or weed control at 35 g/ha [9] was 30 to 44%, the pest or weed control at 70 g/ha [9] was 30 to 44% and the pest or weed control at 140 g/ha [9] was 45 to 59%. For the same compound, the “GR50 VERPE” value [9] was 123 g ai/ha and the “GR80 VERPE” value [9] was over 140 g ai/ha.
For COC(=O)c1nc(-c2ccc(F)c(F)c2F)c(F)c(N)c1Cl [Compound 186], the pest or weed control at 35 g/ha [1] was 0 to 29%, the pest or weed control at 70 g/ha [1] was 0 to 29% and the pest or weed control at 140 g/ha [1] was 0 to 29%. For the same compound, the pest or weed control at 35 g/ha [3] was 60 to 74%, the pest or weed control at 70 g/ha [3] was 60 to 74% and the pest or weed control at 140 g/ha [3] was 60 to 74%. For the same compound, the “GR50 KCHSC” value [3] was 1 g ai/ha, the “GR80 KCHSC” value [3] was over 140 g ai/ha and the pest or weed control at 35 g/ha [4] was 75 to 84%. The pest or weed control at 70 g/ha [4] was 85 to 94%, the pest or weed control at 140 g/ha [4] was 85 to 94% and the “GR50 LAMSS” value [4] was 1 g ai/ha. The “GR80 LAMSS” value [4] was 25 g ai/ha, the “GR50 LOLSS” value [5] was over 140 g ai/ha and the “GR80 LOLSS” value [5] was over 140 g ai/ha. It also gave a pest or weed control at 35 g/ha [6] of 0 to 29%, a pest or weed control at 70 g/ha [6] of 0 to 29% and a pest or weed control at 140 g/ha [6] of 0 to 29%. The “GR50 MATSS” value [6] was over 140 g ai/ha and the “GR80 MATSS” value [6] was over 140 g ai/ha.
